Test results: article PMC8962522, “Direct interaction of TrkA/CD44v3 is essential for NGF-promoted aggressiveness of breast cancer cells” (Journal of Experimental & Clinical Cancer Research : CR, 2022)

Legend:
[1] = tested on: TrkA/CD44 complex in COS-7 cells transfected with TrkA and CD44s or CD44v6; test: PLA TrkA/CD44s or TrkA/CD44v6 complex formation in COS-7 cells; format: cell-based, African green monkey (COS-7 cells); details: NGF 100 ng/ml, 0, 5 or 30 min
Experimental: Cells (10,000 cells per well) were grown on acid-washed eight-well glass slides (Thermo Scientific) in the appropriate medium supplemented with 10% FBS for 24 h. After NGF treatment, paraformaldehyde (PAF)-fixed cells were incubated with 4% bovine serum albumin (BSA) or 5% FBS (for 1 h at 20 °C), followed by overnight incubation with primary antibodies (rabbit anti-TrkA or rabbit anti-IgG + mouse anti-pan-CD44; mouse anti-CD44v3; mouse anti-CD44v6; mouse anti-IgG2a; mouse anti-IgG2b; or mouse anti-IgG1). PLA was performed following the manufacturer’s instructions in the assay kit (Duolink PLA; Sigma–Aldrich). To obtain the correct representation of the PLA signal for each condition, 30 fields per condition were observed using a fluorescence microscope (Eclipse TiU; Nikon, Japan). The PLA signals (red dots) were automatically quantified using ImageJ software (with an in-house-developed plug-in). […]
Supplementary file 13046_2022_2314_MOESM3_ESM.pdf: Additional file 3: Supplementary Figure 1. […] The expression of all CD44 isoforms (A), CD44 variant 3 (B), CD44 variant 6 (C) and TrkA ([…]; D) was evaluated by RT–qPCR (normalized using PUM-1). No expression of CD44, CD44 variants [3 or 6] or TrkA was detected in COS-7 cells (A-D) compared with that in cells transfected with the expression plasmid carrying each protein. […]

SUM-159-PT cells = test: Scratch/wound migration assay, SUM-159-PT; format: cell-based; details: 24 h after treatment; Supplementary Fig. 9 C & D; effects as in MDA-MB-231 (inhibition of NGF-induced migration)

| Substance | effect on TrkA/CD44s or TrkA/CD44v6 complex formation (PLA) in COS-7 cells [1] | effect on migration of SUM-159-PT cells (SUM-159-PT cells) |
| --- | --- | --- |
| NGF: recombinant human β-NGF (Alomone Labs, Israel) | Neither wild-type COS-7 cells nor COS-7 cells transfected with TrkA and the CD44s or CD44v6 isoform showed the formation of the dynamic TrkA/CD44 complex in PLA |  |
| IDDDEDFISST [Peptide 4, mimetic peptide 4 (…) corresponding to the C-terminal region of CD44v3] |  | We also confirmed the effects of CD44v3 mimetic peptide 4 on migration in SUM-159-PT cells |
